Here are results for 9 molecules from US10125134B2 (Mirati Therapeutics, Inc., priority 2016, dated 2018).

In test [1] the test system is NCI-H358 cells (express KRas G12C), Phospho-ERK. As to the kind of experiment: Cellular inhibition of KRas G12C: Phospho-ERK in NCI-H358 cells. Conditions: Homo sapiens, pERK(Thr202/Tyr204) normalized with GAPDH, NCI-H358 cells, 3 hours, read-out: IC50. In kind it is cell-based. Summed up:
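IC50 derived by 4-parameter fit of GAPDH-normalized pERK(Thr202/Tyr204) signal, as percent of DMSO control. Signal came from in-cell immunodetection with infrared secondaries after 3 h compound exposure of KRas G12C NCI-H358 cells at 0.5% DMSO.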

The target in test [2] is KRas G12C (Homo sapiens, UniProt P01116, C118S/C51S/C80L/G12C). As to the kind of experiment: KRas G12C Modification Assay (LCMS detection of covalent adduct). Format: binding. A digest of the protocol:
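Covalent modification was read by reverse-phase LC/MS of intact protein after compound exposure, each reaction stopped at its time point with 25 mM acetic acid. Unmodified-protein signal, taken as percent of total, was normalised to untreated protein and reported as POC.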

Where [3] appears, read: normalized percent of control, tested at 5 μM concentration for 3 hours.

Like-named read-outs stand apart in the source and are kept apart here. Some results are limits rather than exact numbers.

Take `C=CC(=O)N1CCN(c2nc(OCCCN3C[C@@H]4C[C@H]3CO4)nc3c2CCN(c2cc(O)cc4ccccc24)C3)CC1CC#N` (stereo partly drawn) [Example 153, 2-[4-[7-(3-hydroxy-1-naphthyl)-2-[3-[(1S,4S)-2-oxa-5-azabicyclo[2.2.1]heptan-5-yl]propoxy]-6,8-dihydro-5H-pyrido[3,4-d]pyrimidin-4-yl]-1-prop-2-enoyl-piperazin-2-yl]acetonitrile]: in test [1], the IC50 lay within 0.0001 to 1 µM. Also, the POC result in test [2] (setting [3]) is “C (“C”>50% POC)”.

In the case of `C=CC(=O)N1CCN(c2nc(OCCCN3C[C@@H]4C[C@H]3CO4)nc3c2CCN(c2cccc4ccccc24)C3)CC1CC#N` (stereo partly drawn) [Example 154, 2-[4-[7-(1-naphthyl)-2-[3-[(1S,4S)-2-oxa-5-azabicyclo[2.2.1]heptan-5-yl]propoxy]-6,8-dihydro-5H-pyrido[3,4-d]pyrimidin-4-yl]-1-prop-2-enoyl-piperazin-2-yl]acetonitrile], the IC50 in test [1] (NCI-H358, 3 h) is 0.0001 to 1 µM. In test [2] (setting [3]), the POC result is “C (“C”>50% POC)”.

For `C=CC(=O)N1CCN(c2nc(OC[C@@H]3CCCN3C)nc3c2CCN(c2c(C)ccc4[nH]ncc24)C3)CC1` [Example 155, (S)-1-(4-(7-(5-methyl-1H-indazol-4-yl)-2-((1-methylpyrrolidin-2-yl)methoxy)-5,6,7,8-tetrahydropyrido[3,4-d]pyrimidin-4-yl)piperazin-1-yl)prop-2-en-1-one], the IC50 in test [1] lay in the range of 0.0001 to 1 µM. Moreover, the POC entry in test [2] (5 µM) was “C (key: “A”≤25% POC; “B”>25% POC−≤50% POC; “C”>50% POC)”.

For the molecule `C=CC(=O)N1CCN(c2nc(OC[C@@H]3CCCN3C)nc3c2CCN(c2c(C(F)(F)F)ccc4[nH]ncc24)C3)CC1` [Example 156, (S)-1-(4-(2-((1-methylpyrrolidin-2-yl)methoxy)-7-(5-(trifluoromethyl)-1H-indazol-4-yl)-5,6,7,8-tetrahydropyrido[3,4-d]pyrimidin-4-yl)piperazin-1-yl)prop-2-en-1-one], the IC50 in test [1] (NCI-H358, 3 h) was in the range of 0.0001 to 1 µM. In test [2] (setting [3]), the POC result is “C (“C”>50% POC)”.

Regarding `C=CC(=O)N1CCN(c2nc(OC[C@@H]3CCCN3C)nc3c2CCN(c2c(OC)ccc4[nH]ncc24)C3)CC1` [Example 157, (S)-1-(4-(7-(5-methoxy-1H-indazol-4-yl)-2-((1-methylpyrrolidin-2-yl)methoxy)-5,6,7,8-tetrahydropyrido[3,4-d]pyrimidin-4-yl)piperazin-1-yl)prop-2-en-1-one], the IC50 in test [1] (NCI-H358, 3 h) was over 1 µM. Besides, the POC result in test [2] (setting [3]) was “C (“C”>50% POC)”.

On to `C=CC(=O)N1CCN(c2nc(OC[C@@H]3CCCN3C)nc3c2CCN(c2ccccc2C(C)C)C3)CC1` [Example 158, 1-[4-[7-(2-isopropylphenyl)-2-[[(2S)-1-methylpyrrolidin-2-yl]methoxy]-6,8-dihydro-5H-pyrido[3,4-d]pyrimidin-4-yl]piperazin-1-yl]prop-2-en-1-one], for which, in test [1], the IC50 was over 1 µM. Moreover, the POC entry in test [2] (setting [3]) is listed as “C (“C”>50% POC)”.

As for `C=CC(=O)N1CCN(c2nc(OC[C@@H]3CCCN3C)nc3c2CCN(c2ccccc2C(F)(F)F)C3)CC1` [Example 159, (S)-1-(4-(2-((1-methylpyrrolidin-2-yl)methoxy)-7-(2-(trifluoromethyl)phenyl)-5,6,7,8-tetrahydropyrido[3,4-d]pyrimidin-4-yl)piperazin-1-yl)prop-2-en-1-one], the IC50 in test [1] (NCI-H358, 3 h) was over 1 µM. In test [2] (setting [3]), the POC result is on record as “C (“C”>50% POC)”.

On to `C=CC(=O)N1CCN(c2nc(OCCCN3CCCCC3)nc3c2CCN(c2c(C)ccc4[nH]ncc24)C3)CC1` [Example 160, 1-(4-(7-(5-methyl-1H-indazol-4-yl)-2-(3-(piperidin-1-yl)propoxy)-5,6,7,8-tetrahydropyrido[3,4-d]pyrimidin-4-yl)piperazin-1-yl)prop-2-en-1-one], for which, in test [1], the IC50 was over 1 µM. Also, in test [2] (setting [3]), the POC entry is “C (“C”>50% POC)”.

For the molecule `C=CC(=O)N1CCN(c2nc(OCC3CCN(C)C3)nc3c2CCN(c2c(C)ccc4[nH]ncc24)C3)CC1` (stereo not drawn) [Example 161, 1-[4-[7-(5-methyl-1H-indazol-4-yl)-2-[(1-methylpyrrolidin-3-yl)methoxy]-6,8-dihydro-5H-pyrido[3,4-d]pyrimidin-4-yl]piperazin-1-yl]prop-2-en-1-one], the IC50 in test [1] is over 1 µM. Further, the POC entry in test [2] (setting [3]) is “C (“C”>50% POC)”.
